According to article PMC8451722, “Staphylococcus aureus Depends on Eap Proteins for Preventing Degradation of Its Phenol-Soluble Modulin Toxins by Neutrophil Serine Proteases” (Frontiers in Immunology, 2021):

Experiments:
[1] = target: T1, human neutrophil elastase (Homo sapiens, UniProt P08246); experiment: Prevention of NSP-mediated PSMα3 degradation by NSP inhibitors (western blot); assay type: biochemical; details: 100µM PMSF, one hour at 37°C, text: pre-incubation of neutrophils, Supplementary Figure 1: digestion with NE
T1 construct: purchased PanReac AppliChem
T1 sequence (P08246 30-267): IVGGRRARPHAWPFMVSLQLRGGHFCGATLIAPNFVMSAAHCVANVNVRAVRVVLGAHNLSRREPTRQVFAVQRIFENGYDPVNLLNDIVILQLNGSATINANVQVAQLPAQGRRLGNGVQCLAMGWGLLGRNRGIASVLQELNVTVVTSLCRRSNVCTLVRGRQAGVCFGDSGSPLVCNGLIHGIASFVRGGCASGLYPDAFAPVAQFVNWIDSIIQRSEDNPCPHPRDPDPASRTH
Experimental: (§1) PSMα3 (1,3µg) was digested either with 0,15 unit’s NE, CG or PR3 for one hour at 37°C with or without addition of PMSF (100µM) or 2µg Eap, 4µgEapH1 or 4µg EapH2. For digestion of PSMα3 by neutrophils, 25µl PSMα3 (20µM) was incubated for one hour with or without 5x10^6 neutrophils in 100µl RPMI at 37°C, 5% CO2. After centrifugation 10µl of the supernatant was used for western Blot analysis. After denaturation of the samples for two minutes at 85°C and addition of Tricine Sample Buffer, samples were subjected to a 10-20%- Tricine SDS gradient gel (Thermo Fischer Scientific). Then, proteins were blotted to a nitrocellulose membrane and blocked overnight using blocking buffer. After washing PSM α3 was visualized using rabbit anti-PSMα3 serum (kindly provided by Michael Otto) at a concentration of 1:10000 (for one hour, 4°C, under agitation). After washing with wash buffer (Tris buffered saline, BioRad +0,05% Tween, Merck), the secondary antibody goat anti rabbit IgG (Dylight 800 conjugate (LI-COR #2557) was added (diluted 1:10000 in blocking buffer) and incubated for one hour at 4°C. Protein bands were detected with the Licor Odyssey CLx.

human neutrophils = experiment: CD11b expression on neutrophils; assay type: cell-based; details: USA300 culture filtrate 0,36% in RPMI, treated 24 hours with neutrophils +/- PMSF; neutrophils stimulated 60 min 37°C; flow cytometry
Experimental: Sterile filtered culture filtrates of S. aureus USA300 (0,36% in RPMI) or TSB were incubated for 24 hours either with or without addition of the NSP inhibitor PMSF and neutrophils. Activation of human neutrophils was determined by measuring surface expression of CD11b. Neutrophils were incubated with the treated culture filtrates at 37°C with rotation for 60 min as described elsewhere ([24]). Cells were stained with a PE-labeled antibody against CD11b (mAb 44; BD Biosciences) or isotype control antibody (BD Biosciences) as described previously. Then, neutrophils were analyzed on a FACS Fortessa cytometer (BD Biosciences)

human FPR2/ALX = target: T2, human FPR2/ALX (Homo sapiens, UniProt P25090); experiment: Calcium mobilization in HL60 FPR2 cells; assay type: cell-based; details: calcium flux
T2 construct: expressed in transfected cells; host or cells: HL60
T2 sequence (P25090 1-351): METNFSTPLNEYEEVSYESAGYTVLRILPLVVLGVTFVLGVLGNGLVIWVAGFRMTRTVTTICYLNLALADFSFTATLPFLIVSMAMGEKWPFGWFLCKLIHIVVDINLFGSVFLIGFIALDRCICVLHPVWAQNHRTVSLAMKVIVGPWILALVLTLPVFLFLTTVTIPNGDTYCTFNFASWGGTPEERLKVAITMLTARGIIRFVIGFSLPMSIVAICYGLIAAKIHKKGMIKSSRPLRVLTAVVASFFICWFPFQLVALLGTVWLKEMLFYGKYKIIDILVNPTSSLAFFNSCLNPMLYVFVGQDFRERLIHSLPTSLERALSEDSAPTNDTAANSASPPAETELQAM
Experimental: Culture filtrates of different bacterial strains (USA300, USA300ΔeapΔeapHIΔeapHII::ermB, S. epidermidis RN1457) were incubated with different amounts of neutrophils to investigate the potential of neutrophils to inactivate their PSM activity. Therefore, 100µl of sterile filtered overnight culture were incubated with 100µl neutrophils in RPMI at the indicated concentrations for six or 24 hours as described in the figure legends. After centrifugation, supernatants were collected and frozen at -20° until they were further analyzed for their FPR2 activity, for truncated PSM fragments and their cytotoxicity.
HL60 cells stably transfected with human FPR2/ALX (HL60-FPR2) have been described recently ([23]). These cells were grown in RPMI medium (Biochrom) supplemented with 10% FCS (Sigma-Aldrich), 20 mM Hepes (Biochrom), penicillin (100 units/ml), streptomycin (100 µg/ml) (Gibco), 1 × Glutamax (Gibco) and in the presence of G418 (Biochrom) at a final concentration of 1 mg/ml. […] Calcium fluxes were analyzed by stimulating cells loaded with Fluo-3-AM (Molecular Probes) and monitoring fluorescence with a FACSCalibur or a FACS Fortessa flow cytometer (BD Biosciences) as described recently ([23]).

[2] = target: T3, human neutrophil proteinase 3 (Homo sapiens, UniProt P24158); experiment: Degradation of PSMα3 by PR3 (western blot); assay type: in vitro ADME; details: PSMα3 1,3µg, 0,15 units PR3, one hour at 37°C, three independent experiments
T3 construct: purchased MyBioSource
T3 sequence (P24158 28-256): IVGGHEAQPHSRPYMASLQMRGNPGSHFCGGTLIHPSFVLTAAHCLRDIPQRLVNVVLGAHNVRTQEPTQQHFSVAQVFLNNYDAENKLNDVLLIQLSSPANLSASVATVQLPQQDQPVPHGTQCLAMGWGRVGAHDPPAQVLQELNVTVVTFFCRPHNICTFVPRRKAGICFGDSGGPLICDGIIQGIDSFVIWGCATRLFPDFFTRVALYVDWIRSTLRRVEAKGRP
Experimental: (§2) The three different human serine proteases human NE, PR3, 0.01 U and CG, 0.01 U were investigated and their potential to inactivate PSMα3 was compared. […] 28 ng/ml NE (stock: 1.4 mg/ml) were incubated for one hour at 37°C in RPMI plus 0.05% HSA to inactivate 500 nM PSMα3 in a total volume of 120 μl (0.012 μl NE in 60 μl RPMI). To avoid further degradation of PSMα3, all stimulations were prepared freshly and analyzed in different assays on the same day.
as §1, with “Then, proteins were blotted to a nitrocellulose membrane and blocked overnight using blocking buffer. After washing PSM α3 was visualized using rabbit anti-PSMα3 serum (kindly provided by Michael Otto) at a concentration of 1:10000 (for one hour, 4°C, under agitation).” left out

HL60 cells = experiment: Cytotoxicity assay (LDH release), HL60 cells; assay type: cell-based, human; details: three independent experiments
Experimental: 100 μl of synthetic PSMs, protease degraded PSMs or filtered bacterial culture supernatants were added to wells of a 96-well round bottom culture plate containing 10^5 neutrophils in 100 μl and plates were incubated at 37°C for up to 3 h. At the desired times, the stimulation was stopped by centrifugation for 10 minutes at 300 x g at RT, and cell lysis was determined by measuring the release of lactate dehydrogenase (LDH) using the Cytotoxicity Detection Kit (Roche Applied Sciences), according to the manufacturer’s instructions. As control, 100 μl TSB was diluted in RPMI without phenol red, mixed with human neutrophils (10^6) and tested for its ability to cause cell lysis. As control, lysis of HL60 cells was tested in pure RPMI/TSB without phenol red.

[3] = target: T4, human neutrophil cathepsin G (Homo sapiens, UniProt P08311); experiment: Degradation of PSMα3 by CG (western blot); assay type: in vitro ADME; details: PSMα3 1,3µg, 0,15 units CG, one hour at 37°C, three independent experiments
T4 construct: purchased MyBioSource
T4 sequence (P08311 21-255): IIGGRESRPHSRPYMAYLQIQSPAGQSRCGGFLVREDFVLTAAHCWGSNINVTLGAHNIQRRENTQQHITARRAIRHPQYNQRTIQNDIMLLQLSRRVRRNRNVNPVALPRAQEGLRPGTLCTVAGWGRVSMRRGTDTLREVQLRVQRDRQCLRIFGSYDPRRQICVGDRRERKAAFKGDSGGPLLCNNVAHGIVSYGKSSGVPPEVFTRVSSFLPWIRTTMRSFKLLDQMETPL
Experimental: as §2
as §1, with “Then, proteins were blotted to a nitrocellulose membrane and blocked overnight using blocking buffer. After washing PSM α3 was visualized using rabbit anti-PSMα3 serum (kindly provided by Michael Otto) at a concentration of 1:10000 (for one hour, 4°C, under agitation).” left out

[4] = target: T1, human neutrophil elastase; experiment: Degradation of PSMα3 by NE (western blot); assay type: in vitro ADME; details: PSMα3 1,3µg, 0,15 units NE, one hour at 37°C, three independent experiments
Experimental: as §2
as §1, with “Then, proteins were blotted to a nitrocellulose membrane and blocked overnight using blocking buffer. After washing PSM α3 was visualized using rabbit anti-PSMα3 serum (kindly provided by Michael Otto) at a concentration of 1:10000 (for one hour, 4°C, under agitation).” left out

| SMILES | effect of NSP inhibitor PMSF on degradation of PSMα3 [1] | CD11b surface expression on neutrophils incubated with culture filtrates of a PSM-producing S. aureus strain in the presence of inhibitor (human neutrophils) | PSM-mediated FPR2 activation by culture filtrates of PSM producing S. aureus in the simultaneous presence of neutrophils and inhibitor (human FPR2/ALX; HL60-FPR2 cells) | PSMα3-mediated activation of FPR2 in HL60-FPR2 cells after neutrophil treatment with PMSF pre-incubation (human FPR2/ALX; three independent experiments) | degradation of PSMα3 upon incubation with PR3 [2] | cytotoxicity of PSMα3 toward HL60 cells after treatment with NE, CG and PR3 (HL60 cells) | degradation of PSMα3 upon incubation with CG [3] | degradation of PSMα3 upon incubation with NE [4] |
| --- | --- | --- | --- | --- | --- | --- | --- | --- |
| O=S(=O)(F)Cc1ccccc1 [PMSF, Phenylmethylsulfonyl fluoride] | prevents degradation of PSMα3 | upregulation of CD11b | rescued PSM-mediated FPR2 activation | maintained the activation of FPR2 | – | – | – | – |
| CSCC[C@H](NC=O)C(=O)N[C@@H](CCC(=O)O)C(=O)N[C@@H](Cc1ccccc1)C(=O)N[C@H](C(=O)N[C@@H](C)C(=O)N[C@@H](CCCCN)C(=O)N[C@@H](CC(C)C)C(=O)N[C@@H](Cc1ccccc1)C(=O)N[C@@H](CCCCN)C(=O)N[C@@H](Cc1ccccc1)C(=O)N[C@@H](Cc1ccccc1)C(=O)N[C@@H](CCCCN)C(=O)N[C@@H](CC(=O)O)C(=O)N[C@@H](CC(C)C)C(=O)N[C@@H](CC(C)C)C(=O)NCC(=O)N[C@@H](CCCCN)C(=O)N[C@@H](Cc1ccccc1)C(=O)N[C@@H](CC(C)C)C(=O)NCC(=O)N[C@@H](CC(N)=O)C(=O)N[C@@H](CC(N)=O)C(=O)O)C(C)C [PSMα3] | – | – | – | – | readily degraded | abolished | readily degraded | readily degraded |
